Measured values from patent US9090670B2, “Use of peptides for promoting wound healing” (priority 2008, dated 2015).
Where no end group is shown, it is not given here.

Legend:
[1] = system: human buccal epithelial cell line TR146; experiment: In vitro wound closure with inhibitors of EGFR, p38 MAPK and ERK1/2; format: cell-based
Description: Wound assays were performed as previously described (Matthay et al., 1993, J Cell Sci. 106 (Pt 3):869-78). In brief, cells were grown in 12-well plates until confluence, and then were serum deprived for 24 hours in keratinocyte serum free medium (SFM (Invitrogen)). In each well a scratch was made in the cellular monolayer using a sterile tip. The wounded monolayer was washed with SFM to remove cellular debris, and the following conditions were applied: • (i) Whole saliva and salivary secretions applied in 30% (v/v) in SFM. As a negative control 30% (v/v) saliva buffer was used. • (ii) (ii) rhEGF (Invitrogen) as a positive control • (iii) rp-HPLC fractions containing salivary proteins; • (iv) synthetic peptides: the experiments with isolated proteins and synthetic peptides were performed in full SFM.
For inhibitor studies; directly after wounding cells were exposed to inhibitors of ERK1/2 (U0126, 5 μM, LC Laboratories), EGFR (AG1478, 1 μM, Calbiochem), and p38 MAPK (SB203580, 5 μM; LC Laboratories). Experiments were done in quadruplicate and analyzed using One-way ANOVA to determine significance with additional LSD post hoc test, P<0.05 was considered significant.

[2] = system: human buccal epithelial cell line TR146; experiment: In vitro scratch wound closure assay on an epithelial monolayer; format: cell-based
Description: The human buccal epithelial cell line TR146 (Rupniak et al; J Natl Cancer Inst. 1985 October: 75(4):621-35) was kindly provided by Cancer Research UK. Cells were grown in Dulbecco's modified Eagle medium with 4.5 g/l glucose (Invitrogen), 10% FCS (HyClone) and 100 U/ml penicillin, […] streptomycin, and 250 ng/ml amphotericinB (Antibiotic antimyotic solution, Sigma,), at 37° C., 95% humidity and 5% CO2. Cells were maintained until near confluence and then briefly treated with 0.25% trypsin-EDTA 1× (Invitrogen) to detach them, counted in a hepacytometer and seeded into new flasks or multi-well plates at the required cell density of about 1.5×10^5 cells/well. Wound assays were performed as previously described ([…] et al., 1993, J Cell Sci. 106 (Pt 3):869-78). In brief, cells were grown in 12-well plates until confluence, and then were serum deprived for 24 hours in keratinocyte serum free medium (SFM (Invitrogen)). In each well a scratch was made in the cellular monolayer using a sterile tip. The wounded monolayer was washed with SFM to remove cellular debris, and the following conditions were applied: • (i) Whole saliva and salivary secretions applied in 30% (v/v) in SFM. As a negative control 30% (v/v) saliva buffer was used. • (ii) (ii) rhEGF (Invitrogen) as a positive control • (iii) rp-HPLC fractions containing salivary proteins; • (iv) synthetic peptides: the experiments with isolated proteins and synthetic peptides were performed in full SFM. The width of the wound area was determined microscopically immediately after wound creation and at approximately 16 hours after wounding. The relative closure was calculated by relating the closure to that of the negative control.

Compound: EGF: epidermal growth factor, rhEGF (Invitrogen), used as a positive control
- induced wound closure with EGFR blocked ([1]; AG1478 1 μM): abolished the effect
- pathway dependence of induced wound closure ([1]; SB203580 5 μM (p38 MAPK), U0126 5 μM (ERK1/2), FIG. 2): p38^MAPK dependent
- induction of wound closure by EGF ([2]; 5 ng/ml, FIG. 1D): able to induce wound closure with rates comparable to that of parotid saliva
- Wound closure rel. clos. ± SD ([2]; TR146 monolayer, approx. 16 hours after wounding, closure relative to negative control, peptides tested at 1-50 μg/ml): 1.41 ± 0.12

Compound: C-HST1: cyclic peptide having the amino acid sequence according to SEQ. ID. NO. 4, Histatin 1 (DSHEKRHHGYRRKFHEKHHSHREFPFYGDYGSNYLYDN; ends and bridges not checked; also: cyclic, mode of cyclisation not given here)
- relative wound closure ([2]; concentration of 1*10-3 μM, FIG. 4, 1 = no peptide added): 1.5

Compound: CC(C)C[C@H](NC(=O)[C@H](Cc1ccc(O)cc1)NC(=O)[C@H](CC(N)=O)NC(=O)[C@H](CO)NC(=O)[C@H](CCCNC(=N)N)NC(=O)[C@H](Cc1ccc(O)cc1)NC(=O)CNC(=O)[C@H](CCCNC(=N)N)NC(=O)[C@H](Cc1c[nH]cn1)NC(=O)[C@H](CO)NC(=O)[C@H](Cc1c[nH]cn1)NC(=O)[C@H](Cc1c[nH]cn1)NC(=O)[C@H](CCCCN)NC(=O)[C@H](CCC(=O)O)NC(=O)[C@H](Cc1c[nH]cn1)NC(=O)[C@H](Cc1ccccc1)NC(=O)[C@H](CCCCN)NC(=O)[C@H](CCCNC(=N)N)NC(=O)[C@H](CCCCN)NC(=O)[C@H](Cc1ccc(O)cc1)NC(=O)CNC(=O)[C@H](Cc1c[nH]cn1)NC(=O)[C@H](Cc1c[nH]cn1)NC(=O)[C@H](CCCNC(=N)N)NC(=O)[C@H](CCCCN)NC(=O)[C@H](C)NC(=O)[C@H](Cc1c[nH]cn1)NC(=O)[C@H](CO)NC(=O)[C@@H](N)CC(=O)O)C(=O)N[C@@H](Cc1ccc(O)cc1)C(=O)N[C@@H](CC(=O)O)C(=O)N[C@@H](CC(N)=O)C(=O)O [Histatin 3]
- induction of wound closure (in words) ([2]; synthesized peptides in SFM, vs control): induce wound closure
